In ChEMBL document CHEMBL1770127, “2-(2-Aminothiazol-4-yl)pyrrolidine-based tartrate diamides as potent, selective and orally bioavailable TACE inhibitors” (Bioorg Med Chem Lett, 2011):

Experiments:
[1] = Plasma concentration in Sprague-Dawley rat at 10 mg/kg, po measured after 6 hrs by LC/MS/MS analysis; type: ADME, organism-based; design: dose 10 mg/kg, route oral
Interstitial collagenase = target: T1, Interstitial collagenase (Homo sapiens, UniProt P03956); test: Inhibition of MMP1
T1 sequence (P03956 whole entry): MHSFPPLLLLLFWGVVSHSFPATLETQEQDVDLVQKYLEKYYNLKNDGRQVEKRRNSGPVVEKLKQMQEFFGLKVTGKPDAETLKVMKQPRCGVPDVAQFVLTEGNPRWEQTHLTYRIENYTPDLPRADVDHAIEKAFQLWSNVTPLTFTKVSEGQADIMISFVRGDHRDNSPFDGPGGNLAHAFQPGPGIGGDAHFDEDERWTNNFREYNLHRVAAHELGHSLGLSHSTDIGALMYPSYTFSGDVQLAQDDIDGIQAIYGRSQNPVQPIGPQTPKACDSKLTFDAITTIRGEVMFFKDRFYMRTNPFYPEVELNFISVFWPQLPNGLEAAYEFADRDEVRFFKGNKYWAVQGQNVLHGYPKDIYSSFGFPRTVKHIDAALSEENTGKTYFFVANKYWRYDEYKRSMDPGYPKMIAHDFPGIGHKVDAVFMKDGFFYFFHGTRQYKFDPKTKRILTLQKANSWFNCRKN

[2] = target: T2, Disintegrin and metalloproteinase domain-containing protein 17 (Homo sapiens, UniProt P78536); test: Inhibition of TACE
T2 sequence (P78536 whole entry, the tested form may be a part): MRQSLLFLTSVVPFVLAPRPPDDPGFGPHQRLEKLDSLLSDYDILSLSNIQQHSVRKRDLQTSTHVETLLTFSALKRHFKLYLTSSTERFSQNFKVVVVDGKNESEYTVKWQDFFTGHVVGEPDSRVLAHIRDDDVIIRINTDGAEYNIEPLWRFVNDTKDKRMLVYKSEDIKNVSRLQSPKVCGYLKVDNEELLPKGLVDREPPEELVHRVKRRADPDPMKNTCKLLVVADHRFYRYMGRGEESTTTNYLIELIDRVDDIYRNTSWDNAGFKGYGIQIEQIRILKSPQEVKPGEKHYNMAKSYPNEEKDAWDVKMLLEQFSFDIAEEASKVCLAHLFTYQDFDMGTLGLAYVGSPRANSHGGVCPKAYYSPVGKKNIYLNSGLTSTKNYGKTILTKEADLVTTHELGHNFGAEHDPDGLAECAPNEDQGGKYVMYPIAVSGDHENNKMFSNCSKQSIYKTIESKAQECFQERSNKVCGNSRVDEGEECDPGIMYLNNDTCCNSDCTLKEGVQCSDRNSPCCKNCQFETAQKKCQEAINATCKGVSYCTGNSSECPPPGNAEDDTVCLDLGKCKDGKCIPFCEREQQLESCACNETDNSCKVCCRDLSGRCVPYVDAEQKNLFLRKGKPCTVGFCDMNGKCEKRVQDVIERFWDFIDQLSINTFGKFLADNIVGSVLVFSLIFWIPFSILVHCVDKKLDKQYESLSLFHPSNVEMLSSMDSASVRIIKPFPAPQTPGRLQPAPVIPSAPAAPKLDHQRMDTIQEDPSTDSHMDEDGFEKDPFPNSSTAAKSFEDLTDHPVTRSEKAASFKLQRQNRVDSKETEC

[3] = AUC in Sprague-Dawley rat at 10 mg/kg, po measured within 6 hrs after post-dosing by LC/MS/MS analysis; type: ADME, organism-based; design: time < 6 hr, dose 10 mg/kg, route oral; conditions: plasma
[4] = target: 72 kDa type IV collagenase (Homo sapiens, UniProt P08253); test: Inhibition of MMP2
Sequence of 72 kDa type IV collagenase (P08253 whole entry): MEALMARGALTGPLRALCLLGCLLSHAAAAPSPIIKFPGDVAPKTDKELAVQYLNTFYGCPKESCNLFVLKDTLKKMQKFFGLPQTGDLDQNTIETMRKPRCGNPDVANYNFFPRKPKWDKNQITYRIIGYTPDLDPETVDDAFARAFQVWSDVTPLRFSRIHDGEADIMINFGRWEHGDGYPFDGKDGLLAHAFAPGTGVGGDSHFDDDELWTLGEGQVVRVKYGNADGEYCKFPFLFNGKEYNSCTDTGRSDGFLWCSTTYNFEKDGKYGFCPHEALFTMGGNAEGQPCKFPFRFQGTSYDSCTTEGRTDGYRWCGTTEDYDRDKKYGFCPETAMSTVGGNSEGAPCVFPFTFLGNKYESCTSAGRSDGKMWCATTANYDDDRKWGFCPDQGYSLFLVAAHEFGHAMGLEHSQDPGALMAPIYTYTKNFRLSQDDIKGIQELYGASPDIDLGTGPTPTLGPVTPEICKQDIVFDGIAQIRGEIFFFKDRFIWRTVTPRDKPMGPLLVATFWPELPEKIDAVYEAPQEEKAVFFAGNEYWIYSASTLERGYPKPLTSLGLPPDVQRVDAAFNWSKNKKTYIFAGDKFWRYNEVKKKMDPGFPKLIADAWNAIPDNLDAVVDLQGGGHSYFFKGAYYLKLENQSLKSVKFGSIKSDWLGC

[5] = target: Matrix metalloproteinase-9 (Homo sapiens, UniProt P14780); test: Inhibition of MMP9
Sequence of Matrix metalloproteinase-9 (P14780 whole entry): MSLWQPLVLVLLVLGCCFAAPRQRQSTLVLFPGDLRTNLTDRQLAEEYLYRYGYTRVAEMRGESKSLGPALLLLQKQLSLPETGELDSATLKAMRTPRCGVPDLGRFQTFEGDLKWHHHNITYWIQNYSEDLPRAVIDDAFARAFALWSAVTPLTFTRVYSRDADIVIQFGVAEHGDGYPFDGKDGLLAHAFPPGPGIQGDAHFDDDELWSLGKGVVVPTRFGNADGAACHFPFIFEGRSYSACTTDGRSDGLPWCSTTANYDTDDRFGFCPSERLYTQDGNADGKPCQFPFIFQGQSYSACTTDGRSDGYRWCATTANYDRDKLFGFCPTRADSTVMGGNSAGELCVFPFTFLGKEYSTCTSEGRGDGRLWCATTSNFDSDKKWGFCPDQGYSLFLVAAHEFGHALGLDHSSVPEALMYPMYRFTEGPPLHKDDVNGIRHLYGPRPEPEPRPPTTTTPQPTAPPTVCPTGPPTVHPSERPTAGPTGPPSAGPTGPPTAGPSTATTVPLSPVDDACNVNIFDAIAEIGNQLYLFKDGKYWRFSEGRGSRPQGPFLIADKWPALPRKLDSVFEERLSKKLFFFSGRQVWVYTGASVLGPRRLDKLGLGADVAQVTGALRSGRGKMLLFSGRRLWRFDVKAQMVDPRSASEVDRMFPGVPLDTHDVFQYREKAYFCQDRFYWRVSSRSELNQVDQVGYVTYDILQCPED

Matrilysin = target: T3, Matrilysin (Homo sapiens, UniProt P09237); test: Inhibition of MMP7
T3 sequence (P09237 whole entry): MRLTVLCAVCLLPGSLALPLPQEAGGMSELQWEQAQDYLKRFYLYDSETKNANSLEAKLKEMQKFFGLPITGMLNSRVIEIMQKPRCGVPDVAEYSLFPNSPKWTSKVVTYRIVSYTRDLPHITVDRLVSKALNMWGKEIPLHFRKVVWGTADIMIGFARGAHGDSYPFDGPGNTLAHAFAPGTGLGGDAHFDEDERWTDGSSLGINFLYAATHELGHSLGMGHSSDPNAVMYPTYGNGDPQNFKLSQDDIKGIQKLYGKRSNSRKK

[6] = target: T2, Disintegrin and metalloproteinase domain-containing protein 17; test: Inhibition of TACE by cell based assay
Collagenase 3 = Collagenase 3 (Homo sapiens, UniProt P45452); test: Inhibition of MMP13
[7] = target: Matrix metalloproteinase-14 (Homo sapiens, UniProt P50281); test: Inhibition of MMP14
Stromelysin-1 = Stromelysin-1 (Homo sapiens, UniProt P08254); test: Inhibition of MMP3
Sequence of Stromelysin-1 (P08254 whole entry, the tested form may be a part): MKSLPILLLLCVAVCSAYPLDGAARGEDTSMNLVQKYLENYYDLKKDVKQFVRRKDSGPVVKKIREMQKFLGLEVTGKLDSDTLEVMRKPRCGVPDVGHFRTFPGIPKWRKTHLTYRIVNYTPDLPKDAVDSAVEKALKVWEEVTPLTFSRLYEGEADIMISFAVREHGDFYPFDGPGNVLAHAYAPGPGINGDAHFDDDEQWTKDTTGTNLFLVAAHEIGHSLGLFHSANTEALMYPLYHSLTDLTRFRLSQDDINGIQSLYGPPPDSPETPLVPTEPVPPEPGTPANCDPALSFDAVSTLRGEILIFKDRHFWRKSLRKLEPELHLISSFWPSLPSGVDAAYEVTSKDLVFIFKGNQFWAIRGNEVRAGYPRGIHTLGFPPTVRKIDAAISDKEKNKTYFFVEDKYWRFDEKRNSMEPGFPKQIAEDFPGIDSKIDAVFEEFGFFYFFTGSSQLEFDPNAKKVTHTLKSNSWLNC

[8] = target: T4, Disintegrin and metalloproteinase domain-containing protein 10 (Homo sapiens, UniProt O14672); test: Inhibition of ADAM10
T4 sequence (O14672 whole entry): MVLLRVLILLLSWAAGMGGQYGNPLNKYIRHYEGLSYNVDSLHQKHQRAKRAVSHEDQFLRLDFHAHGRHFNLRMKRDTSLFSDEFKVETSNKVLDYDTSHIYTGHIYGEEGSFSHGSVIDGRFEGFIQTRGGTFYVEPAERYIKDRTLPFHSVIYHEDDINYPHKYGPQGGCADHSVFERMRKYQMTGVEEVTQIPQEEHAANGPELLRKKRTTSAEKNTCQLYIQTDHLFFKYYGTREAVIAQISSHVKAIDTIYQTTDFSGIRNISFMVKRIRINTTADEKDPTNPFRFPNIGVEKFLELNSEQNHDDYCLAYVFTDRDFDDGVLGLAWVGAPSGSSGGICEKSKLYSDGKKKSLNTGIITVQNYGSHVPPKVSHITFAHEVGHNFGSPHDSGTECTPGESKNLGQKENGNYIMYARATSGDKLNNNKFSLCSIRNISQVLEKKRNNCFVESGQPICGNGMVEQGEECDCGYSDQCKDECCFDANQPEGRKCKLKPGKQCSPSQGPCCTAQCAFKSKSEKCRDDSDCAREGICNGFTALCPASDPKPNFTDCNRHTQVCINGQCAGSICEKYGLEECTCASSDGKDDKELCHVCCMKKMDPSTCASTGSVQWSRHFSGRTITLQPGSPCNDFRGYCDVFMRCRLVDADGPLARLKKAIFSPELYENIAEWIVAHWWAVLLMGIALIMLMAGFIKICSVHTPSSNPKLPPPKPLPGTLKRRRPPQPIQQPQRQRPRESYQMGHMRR

| concentration at 6 h [1] [µM] | Ki (Interstitial collagenase) [µM] | Ki [2] [µM] | AUC at 6 h [3] [µM·h] | Ki [4] [µM] | Ki [5] [µM] | Ki (Matrilysin) [µM] | IC50 [6] [µM] | Ki (Collagenase 3) [µM] | Ki [7] [µM] | Ki (Stromelysin-1) [µM] | Ki [8] [µM] | SMILES |
| --- | --- | --- | --- | --- | --- | --- | --- | --- | --- | --- | --- | --- |
| 0.096 | > 100 | 0.0008 | 2.95 | – | – | – | – | – | – | – | – | C[C@@H](NC(=O)[C@H](O)[C@@H](O)C(=O)N1CCC[C@@H]1c1cccc(Cl)c1)c1ccc(-n2cccn2)cc1 |
| 17.6 | > 40 | 0.005 | 134 | 20.5 | > 40 | 18.1 | 3.02 | > 40 | > 40 | > 40 | 1.35 | C[C@@H](NC(=O)[C@H](O)[C@@H](O)C(=O)N1CCC[C@@H]1c1csc(NC2CC2)n1)c1ccc(-n2cccn2)cc1 |
| – | > 40 | 0.001 | 1.13 | > 40 | 10.1 | 13.5 | 0.416 | 14.1 | 16.4 | > 40 | 0.12 | CNc1nc([C@H]2c3ccccc3CN2C(=O)[C@H](O)[C@@H](O)C(=O)N[C@H](C)c2ccc(-n3cccn3)cc2)cs1 |
